Laboratory results taken from PubChem BioAssay (NCI).
Values joined by “and” are separate entries in the source; they are usually repeats but may differ in a detail not shown here. Equal values may be shown once.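 Each compound was tested at five concentrations against cells in 96-well plates for 48 hours. Abbreviation: GI50, concentration required for 50% inhibition of growth. TGI denotes the concentration required for complete inhibition of growth.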

Experiments:
Test in all cases: inhibition of tumour cell growth, NCI panel, 48 h
A549 NSCLC = system: A549 NSCLC
ACHN renal = system: ACHN renal
HCT-116 colon = system: HCT-116 colon
MDA-MB-435 = system: MDA-MB-435
OVCAR-4 ovarian = system: OVCAR-4 ovarian
PC-3 prostate = system: PC-3 prostate
SN12C renal = system: SN12C renal
SW-620 colon = system: SW-620 colon
UO-31 renal = system: UO-31 renal
NCI-H226 lung = system: NCI-H226 lung

SMILES	TGI (A549 NSCLC)	TGI (ACHN renal)	TGI (HCT-116 colon)	TGI (MDA-MB-435)	TGI (OVCAR-4 ovarian)	TGI (PC-3 prostate)	TGI (SN12C renal)	TGI (SW-620 colon)	TGI (UO-31 renal)	TGI (NCI-H226 lung)	GI50 (HCT-116 colon)	GI50 (NCI-H226 lung)	GI50 (OVCAR-4 ovarian)	GI50 (SW-620 colon)	GI50 (UO-31 renal)	GI50 (ACHN renal)	GI50 (MDA-MB-435)	GI50 (PC-3 prostate)	GI50 (SN12C renal)	GI50 (A549 NSCLC)
COC1=C(OC)C(=O)C(C/C=C/c2c(Cl)nc3sccn23)=C(C)C1=O	33.3 µM	36.1 µM	33.5 µM	23.6 µM	13.9 µM	31.6 µM	31.7 µM	46 µM	38.8 µM											
C[n+]1ccc2/c(=C\C#N)c3ccccc3n21	52.7 µM	> 100 µM	> 100 µM	63 µM	72.9 µM	> 100 µM	> 100 µM	> 100 µM	> 100 µM	> 100 µM										
CC(=O)C(C(=O)C(=O)Nc1cc(Cl)c(Cl)cc1Cl)c1csc(N)n1 (stereo unspecified)	> 100 µM	> 100 µM	> 100 µM		> 100 µM		> 100 µM	> 100 µM	> 100 µM	> 100 µM										
O=[N+]([O-])c1cc(C(F)(F)F)cc2c1SC1=Nc3ccccc3CN12	> 100 µM		> 100 µM		> 100 µM		> 100 µM	> 100 µM	> 100 µM	> 100 µM										
Oc1ccccc1CNCc1ccccc1O	> 100 µM	> 100 µM	> 100 µM	> 100 µM	> 100 µM	> 100 µM	> 100 µM	> 100 µM	> 100 µM	> 100 µM										
NCCNc1ccc(NCCN)c2c1C(=O)c1c(O)ccc(O)c1C2=O	0.223 µM and 0.393 µM	0.117 µM and 0.0596 µM	0.52 µM and 0.446 µM	2.37 µM	1.09 µM and 0.715 µM	1.64 µM	0.0799 µM and 0.0776 µM	1.32 µM and 1.12 µM	0.823 µM and 0.374 µM	0.0439 µM and 0.0393 µM	0.0343 µM	10.2 nM	62.5 nM	28.8 nM	57.9 nM					
CCC/C=C/C=C\C(=O)O[C@@H]1[C@@H](C)[C@]2(O)[C@@H]3C=C(C)C(=O)[C@H]3CC(COC(C)=O)=C[C@H]2[C@@H]2C(C)(C)[C@]12OC(C)=O	97.6 µM		57.5 µM		51.4 µM		100 µM	70 µM	92.3 µM	> 97.6 µM										
CCCc1cn2c(/C=N/N=C(N)N)c(-c3ccc([N+](=O)[O-])cc3)nc2s1	2.91 µM	2.88 µM	1.6 µM	3.1 µM		7.01 µM	3.06 µM			3.33 µM										
Cn1cc(-c2csc(-c3cn(CCCN4CCCCC4)c4ccc(Br)cc34)n2)c2cccnc21		3 µM		3.16 µM	4.19 µM	3.22 µM	3.31 µM	3.26 µM	2.89 µM	4.84 µM		2070 nM	2020 nM	1820 nM	1510 nM	1650 nM	1740 nM	1770 nM	1740 nM	
Oc1c(Cl)c(Cl)c(O)c(-c2cnc(-c3ncc(-c4c(O)c(Cl)c(Cl)c(O)c4Cl)s3)s2)c1Cl	> 100 µM	51.5 µM	42 µM	47.7 µM	> 100 µM	> 100 µM	66.3 µM	> 100 µM	58.7 µM	14 µM										
O=C(N/N=C/c1cc(Cl)cc(Cl)c1[OH2+])c1ccncc1.O=S(=O)([O-])[O-].[Fe+2]	53.9 µM	28.1 µM	29.6 µM				79.3 µM	> 100 µM	31.1 µM	41.9 µM										
CC(=O)OC1(C)CC(C)C(=O)C(C(O)CC2CC(=O)NC(=O)C2)C1 (stereo unspecified)	0.936 µM and 3.32 µM	0.131 µM and 0.107 µM		0.272 µM and 0.733 µM	0.178 µM and 0.0277 µM	0.0852 µM		0.129 µM	0.643 µM and 0.389 µM	0.275 µM		10.8 nM								
COc1cccc2c1C(=O)c1c(O)c3c(c(O)c1C2=O)CC(O)(C(C)=O)CC3OC1OC(COC(C)=O)C(OC(C)=O)C(OC(C)=O)C1OC(C)=O (stereo unspecified)	> 100 µM	87.6 µM	> 100 µM	> 100 µM	53.3 µM	> 100 µM	> 100 µM	> 100 µM	> 100 µM											
C[N+]1(C)C/C(=C\C=C\c2ccccc2)C(=O)/C(=C/C=C/c2ccccc2)C1	> 100 µM	> 100 µM	28.9 µM	20 µM	> 84.2 µM	98.7 µM	62.5 µM	41.5 µM	> 100 µM	> 72.1 µM										
CC(C)(C)c1cc(OCc2n[nH]c(=S)n2N)c(Cl)cc1OCc1n[nH]c(=S)n1N	> 100 µM	> 100 µM	> 100 µM	> 100 µM	> 100 µM	> 100 µM	94 µM	> 100 µM	> 100 µM	> 100 µM										
COc1cc2c(cc1OC)-c1cc3cc(OC)c(OC)cc3c(C)[n+]1CC2 (tested in a mixture with another compound)	> 100 µM	> 100 µM	> 100 µM	> 100 µM	> 100 µM	> 100 µM	> 100 µM	> 100 µM	> 100 µM	> 100 µM										
CCn1c(=O)c2c3ccc(O)cc3[nH]c2c2ccc(O)cc21	> 100 µM	> 100 µM	> 100 µM	> 100 µM	> 100 µM	> 100 µM	> 100 µM	> 100 µM	> 100 µM	> 100 µM										
O=C(N/N=C/c1cc(Cl)cc(Cl)c1[O-])c1ccccc1O.O=C(N/N=C/c1cc(Cl)cc(Cl)c1[O-])c1ccccc1O.[Fe+2]	35.2 µM	27.7 µM	72.7 µM		33.7 µM			48.2 µM	48.7 µM	33.5 µM	11.4 µM									10.2 µM
CCN(CC)CCCNC(=O)c1ccccc1Nc1c(Cl)cccc1Cl	31.5 µM	21.8 µM	23.6 µM		23 µM		27.2 µM	30.1 µM	20.3 µM	28.6 µM										
O=[N+]([O-])c1ccc(C2NC(=S)NC3c4cc([N+](=O)[O-])ccc4CCCC23)cc1 (stereo unspecified)	> 100 µM	> 100 µM	> 100 µM	> 100 µM	> 100 µM	> 100 µM	> 100 µM	> 100 µM	> 100 µM	> 100 µM										
Nc1n[nH]c(N)n1	> 10000 µM	> 10000 µM	> 10000 µM	> 10000 µM	> 10000 µM	> 10000 µM	> 8900 µM	> 10000 µM	> 10000 µM	> 10000 µM										
O=c1[nH]c(Br)nc2n[nH]nc12	> 100 µM	> 100 µM	> 100 µM	> 100 µM	> 100 µM	> 100 µM	> 100 µM	> 100 µM	> 100 µM	> 100 µM										
